From patent publication US8685674B2, “Chondroitin synthase, method for producing the same and method for producing saccharide chain-extended chondroitin” (Glytech, Inc., priority 2001, dated 2014)

Assays:
Assay type in all cases: biochemical
[1] = biological target: T1, soluble chondroitin synthase fused with a cleavable insulin signal sequence and a protein A (Homo sapiens, UniProt Q86X52, R588T); assay: GlcUA transferase I (GlcAT-I) assay, UDP-[14C]GlcUA as donor; settings: enzyme-bound beads, MES pH 6.5, 2 mM MnCl2, 37° C., one hour, average of two experiments
T1 construct: ID; NO: 2; made in house; host or cells: COS-1 cells (transient transfection; secreted fusion protein captured from the medium on IgG-Sepharose beads)
T1 sequence (Q86X52 47-802 R588T): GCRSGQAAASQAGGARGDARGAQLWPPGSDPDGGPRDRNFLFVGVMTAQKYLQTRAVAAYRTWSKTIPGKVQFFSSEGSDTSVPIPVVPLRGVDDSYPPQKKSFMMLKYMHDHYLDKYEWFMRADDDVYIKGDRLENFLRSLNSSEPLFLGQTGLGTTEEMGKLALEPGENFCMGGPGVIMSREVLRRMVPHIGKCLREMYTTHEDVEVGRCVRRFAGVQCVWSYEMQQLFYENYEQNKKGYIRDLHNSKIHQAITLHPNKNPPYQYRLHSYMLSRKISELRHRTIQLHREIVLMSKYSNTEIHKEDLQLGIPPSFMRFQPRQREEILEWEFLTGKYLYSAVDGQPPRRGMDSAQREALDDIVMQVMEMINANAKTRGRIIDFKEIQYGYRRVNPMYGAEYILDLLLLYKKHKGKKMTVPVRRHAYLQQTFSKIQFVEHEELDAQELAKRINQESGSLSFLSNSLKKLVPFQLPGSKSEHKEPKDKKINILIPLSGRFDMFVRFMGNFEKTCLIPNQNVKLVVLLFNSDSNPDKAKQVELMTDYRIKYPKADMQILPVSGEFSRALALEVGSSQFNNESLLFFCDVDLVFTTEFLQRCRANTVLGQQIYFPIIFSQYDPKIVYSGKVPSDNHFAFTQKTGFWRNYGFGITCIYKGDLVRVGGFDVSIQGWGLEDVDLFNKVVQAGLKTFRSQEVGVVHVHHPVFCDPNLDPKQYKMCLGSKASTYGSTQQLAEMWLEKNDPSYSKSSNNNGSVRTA
Protocol: (§1) By using FuGENE (Trademark) 6 (Roche Molecular Biochemicals Co., Tokyo), an expression plasmid (6.7 μg) was transfected into a COS-1 cell on a 100 mm plate, in accordance with a manual of the manufacture. On the second day from the transfection, 1 ml of an incubation liquid was collected and incubated together with 10 μL of IgG-Sepharose (Amersham Pharmacia Biotech) at 4° C. for one hour. Beads of the IgG-Sepharose was collected by centrifugation, and then washed with an assay buffer. After that, the beads were resuspended in an assay buffer of the same kind as the assay buffer. The beads were used for assaying GalNAc transferase, GlcUA transferase, and Gal transferase. That is, a fused protein occurred in the incubation liquid was absorbed by IgG-Sepharose so as to remove glycosyltransferases in the incubation liquid. […]
(§2) Assay of GlcUA transferase I (GlcAT-I), which is necessary for synthesis of tetrasaccharide for the linkage region, was carried out with a mixture of, in 30 μL in total, 10 μL of the resuspended beads, 1 nmol Galβ1-3Galβ1-4Xyl, 14.3 μM UDP-[^14C]GlcUA (1.46×10^5 dpm), 50 mM MES buffer, pH6.5, and 2 mM MnCl2 (FEBS lett. 459, 415-420 (1999)). […] The thus collected labeled products were quantified by liquid scintillation spectroscopy.

[2] = biological target: T1, soluble chondroitin synthase fused with a cleavable insulin signal sequence and a protein A; assay: GalNAc transferase assay, UDP-[3H]GalNAc as donor; settings: for ACTIVITY (receptor specificity): enzyme-bound beads, MES pH 6.5, 10 mM MnCl2, 37° C., one hour, average of two experiments
Protocol: By using FuGENE (Trademark) 6 (Roche Molecular Biochemicals Co., Tokyo), an expression plasmid (6.7 μg) was transfected into a COS-1 cell on a 100 mm plate, in accordance with a manual of the manufacture. On the second day from the transfection, 1 ml of an incubation liquid was collected and incubated together with 10 μL of IgG-Sepharose (Amersham Pharmacia Biotech) at 4° C. for one hour. Beads of the IgG-Sepharose was collected by centrifugation, and then washed with an assay buffer. After that, the beads were resuspended in an assay buffer of the same kind as the assay buffer. The beads were used for assaying GalNAc transferase, GlcUA transferase, and Gal transferase. That is, a fused protein occurred in the incubation liquid was absorbed by IgG-Sepharose so as to remove glycosyltransferases in the incubation liquid. Then, by using the enzyme bound beads as an enzyme source, glycosyltransferase activity of the fused protein that was bound to the beads was assayed with various receptor substrates and donor substrates.
As a receptor for GalNAc transferase, a polymer (167 μg) of chondroitin, α-thrombomodulin (1 nmol), or GlcUAβ1-3Galβ1-3Galβ1-4Xylβ1-0-Ser (1 nmol) was used. Moreover, as a receptor for GlcUA transferase, the polymer (167 μg) of chondroitin or Galβ1-3Galβ1-4Xylβ (1 nmol) was used. As a receptor of Gal transferase, sheep submandibular asialomucin (300 μg) or GlcNAcβ1-3Galβ1-4GlcNAcβ1-3Galβ1-4GlcNAc (1 nmol) was used. […]
as §2

[3] = biological target: T1, soluble chondroitin synthase fused with a cleavable insulin signal sequence and a protein A; assay: GlcUA transferase II (GlcAT-II) assay, chondroitin polymer as receptor, UDP-[14C]GlcUA as donor
Protocol: as §1, §2

[4] = biological target: T1, soluble chondroitin synthase fused with a cleavable insulin signal sequence and a protein A; assay: Gal transferase assay, UDP-[3H]Gal as donor; settings: enzyme-bound beads, MES pH 6.5, 10 mM MnCl2, 37° C., one hour, average of two experiments
Protocol: as §1, §2

OC[C@H]1O[C@@H](O[C@H]2[C@@H](O)[C@@H](CO)O[C@@H](O[C@@H]3COC(O)[C@H](O)[C@H]3O)[C@@H]2O)[C@H](O)[C@@H](O)[C@H]1O (stereo partly shown) [Galβ1-3Galβ1-4Xyl]
ACTIVITY (receptor specificity) [1]: ND (ND: Not Detected (<0.1 pmol/ml medium/time))

N[C@@H](CO[C@@H]1OC[C@@H](O[C@@H]2O[C@H](CO)[C@H](O)[C@H](O[C@@H]3O[C@H](CO)[C@H](O)[C@H](O[C@@H]4O[C@H](C(=O)O)[C@@H](O)[C@H](O)[C@H]4O)[C@H]3O)[C@H]2O)[C@H](O)[C@H]1O)C(=O)O [GlcUAβ1-3Galβ1-3Galβ1-4Xylβ-O-Ser, GlcUAβ1-3Galβ1-3Galβ1-4Xylβ1-O-Ser]
ACTIVITY (receptor specificity) [2]: ND (ND: Not Detected (<0.1 pmol/ml medium/time))

Chondroitin
glycosyltransferase activity detected or not (in words) [3]: Activities were detected
ACTIVITY (receptor specificity) ([3]; enzyme-bound IgG-Sepharose beads, pH 5.6, 10 mM MnCl2, 37° C., one hour, average of two experiments): 5.2 pmol/ml medium/time
glycosyltransferase activity detected or not (in words) [2]: Activities were detected
ACTIVITY (receptor specificity) [2]: 1.4 pmol/ml medium/time

GlcNAcβ1-3Galβ1-4GlcNAcβ1-3Galβ1-4GlcNAc
ACTIVITY (receptor specificity) [4]: ND (ND: Not Detected (<0.1 pmol/ml medium/time))
